Data as given in patent US7521474B2, “Biologically active lasonolide compounds” (priority 2003, dated 2009).
pIC50: −log10 of the molar value. Values after ≈ are worked out from the molar mass of the structure shown. Like-named read-outs stand apart in the source and are kept apart here.

Experiments:
Assay type in all cases: cell-based
[1] = test system: Candida albicans (ATCC strain 44506); experiment: Agar (disk) diffusion assay; settings: 37° C., 24 hours
Procedure: (§1) The antifungal activity of lasonolides C and F against Candida albicans (American Type Culture Collection strain 44506) was determined through the use of both agar diffusion and broth dilution assays.
Agar diffusion assays were performed using Sabouraud Dextrose agar plates seeded with the test microbe at 10^5/ml. Disks (6.35 mm, Schliecher and Schuell) were impregnated with 25 μg of test compound, allowed to dry and then placed on the agar surface. After incubation at 37° C. for 24 hours the zones of growth inhibition were determined. A control disk containing 100IU nystatin was run on the same plate as the test compound: the zone of inhibition was 28 mm.

[2] = test system: A549 human lung adenocarcinoma; experiment: Antiproliferative MTT assay, A549; settings: for pIC50: value in parentheses
Procedure: (§2) The lasonolide compounds were analyzed as to their effects on proliferation of A549 human lung adenocarcinoma, PANC-1 human pancreatic cancer and NCI-ADR-RES tumor cell lines. A549 human lung adenocarcinoma, PANC-1 pancreatic cancer cells and the NCI/ADR-RES (formerly MCF-7/ADR) human breast cell lines were obtained from the American Type Culture Collection (Rockville, Md.).
(§3) All cell lines are maintained in Roswell Park Memorial Institute (RPMI) medium 1640 supplemented with 100 U/mL penicillin 100 μg/ml streptomycin, 60 μg/ml L-glutamine, 18 mM HEPES, 0.05 mg/mL gentamycin and 10% fetal bovine serum (for the PANC-1 cell line the media is also supplemented with 100 μg/ml sodium pyruvate and 2.5 mg/ml glucose). Cell lines are cultured in plastic tissue culture flasks and kept in an incubator at 37° C. in humidified air containing 5% CO2.
(§4) To assess the antiproliferative effects of agents against the various cell lines, 200 μl cultures (96-well tissue culture plates, Nunc, Denmark) are first established at 3×10^4 cells/ml for adherent lines in tissue culture medium and incubated for 24 hr at 37° C. in 10% CO2 in air in order to allow cells to attach. A volume of 100 μl of medium is removed from each test well and 100 μl of medium containing serial, two-fold dilutions of the test agent is added to each well containing tumor cells. Medium without drug is also added to wells containing tumor cells which serve as no drug controls.
(§5) Positive drug controls are included to monitor drug sensitivity of each of the cell lines. These include varying dilutions of 5-fluorouracil, and doxorubicin. After 72-h exposure, tumor cells are enumerated using 3-[4,5-Dimethylthiazol-2-yl]-2,5-diphenyltetrazolium bromide (MTT) (M. C. Alley, et al., Cancer Res. 48:589, 1988) as follows:
(§6) A volume of 75 μl of warm growth media containing 5 mg/ml MTT is added to each well, cultures returned to the incubator, and left undisturbed for 3 hours. To spectrophotometrically quantitate formation of reduced formazan, plates are centrifuged (900×g, 5 minutes), culture fluids removed by aspiration, and 200 μl of acidified isopropanol (2 ml concentrated HCl/liter isopropanol) added per well. The absorbance of the resulting solutions is measured at 570 nm with a plate reader (Spectra II (Tecan Laboratories). The absorbance of tests wells is divided by the absorbance of drug-free wells, and the concentration of agent that results in 50% of the absorbance of untreated cultures (IC50) is determined by linear regression of logit-transformed data (D. J. Finney, Statistical Method in Biological Assay, third ed., pp.316-348, Charles Griffin Co., London, 1978). A linear relationship between tumor cell number and formazan production has been routinely observed over the range of cell densities observed in these experiments. The two standard drug controls (indicated above) are included in each assay to monitor the drug sensitivity of each of the cell lines and IC50 values are determined for each drug-cell combination.

[3] = test system: NCI/ADR-RES (formerly MCF-7/ADR) human breast cell line; experiment: Antiproliferative MTT assay, NCI/ADR-RES; settings: 72-h exposure; for pIC50: value in parentheses
Procedure: as §2, §3, §4, §5, §6

[4] = test system: PANC-1 human pancreatic cancer; experiment: Antiproliferative MTT assay, PANC-1; settings: for pIC50: value in parentheses
Procedure: as §2, §3, §4, §5, §6

[5] = test system: Candida albicans (ATCC strain 44506); experiment: Broth dilution assay (MIC); settings: 37° C.; for Minimum inhibitory concentration (MIC): 24 hours; for MIC: Candida albicans, ATCC44506, 24 h
Procedure: as §1
Broth dilution assays were performed as standard 96-well microtiter assays in a total volume of 50 μl with a seeding density of 10^3 cells/ml. The concentration range for test compound ranged from 50 to 3 μg/ml as two-fold dilutions. […] The Minimum inhibitory concentration (MIC) of Lasonolide F (IV) against Candida albicans in SDB broth is 50 μg/ml while in RPMI broth it is greater than 50 μg/ml.

[6] = Homo sapiens, A549, 72-h exposure
[7] = Homo sapiens, PANC-1, 72-h exposure

Q: For Lasonolide C [Lasonolide C (I)], which growth inhibitory zone ([1]; tested at 25 μg/ml (disk 6.35 mm impregnated with 25 μg)) is on record?
A: Its growth inhibitory zone is 15 mm.

Q: And the “A549 IC50” value ([2]; 72-h exposure)?
A: The value was 0.095 µg/mL.

Q: And the pIC50 ([2]; 72-h exposure)?
A: The pIC50 was 6.89.

Q: What about the “NCI ADR-RES IC50” value [3] of the same molecule?
A: Its value is 0.8 µg/mL.

Q: What about the pIC50 [3] of the same molecule?
A: Its pIC50 is 5.95.

Q: What about the “PANC-1 IC50” value ([4]; 72-h exposure) of the same molecule?
A: The value was 0.27 µg/mL.

Q: What about the pIC50 ([4]; 72-h exposure) of the same molecule?
A: The pIC50 was 6.42.

Q: And the “Minimum inhibitory concentration (MIC)” value ([5]; RPMI broth)?
A: Its value is 12.5 µg/mL.

Q: And the “Minimum inhibitory concentration (MIC)” value ([5]; SDB broth)?
A: Its value is 5 µg/mL.

Q: `CCOC(=O)C(O)C/C=C\C[C@@H]1O[C@@H]2/C=C/C/C=C/C(C)=C\[C@H]3O[C@@H](C/C=C/C=C/C(=O)O[C@H](C2)[C@@]1(C)CO)C[C@H](O)[C@H]3C` (some centres unmarked) [Lasonolide E (III), Lasonolide E] was tested. Which IC50 [2, 6] did it give?
A: Its IC50 is 0.19 µg/mL.

Q: And the pIC50 [2, 6]?
A: Its pIC50 is 6.51.

Q: What about the IC50 ([3]; Homo sapiens, NCI/ADR-RES) of the same molecule?
A: Its IC50 is greater than 5 µg/mL.

Q: What about the pIC50 ([3]; Homo sapiens, NCI/ADR-RES) of the same molecule?
A: The pIC50 was less than 5.10.

Q: And the IC50 [4, 7]?
A: Its IC50 is 0.35 µg/mL.

Q: And the pIC50 [4, 7]?
A: The pIC50 was 6.24.

Q: Which MIC ([5]; antifungal control, broth not stated, read-out: MIC) does the source give for `Nc1nc(=O)[nH]cc1F` [5-fluorocytosine, reference compound] here?
A: Its MIC is 0.62 µg/mL (≈ 4.8 µM).

Q: `CC1=C/[C@H]2O[C@@H](C/C=C/C=C/C(=O)O[C@@H]3C[C@@H](/C=C/C\C=C\1)O[C@@H](C/C=C\CC(O)C(=O)O)[C@]3(C)CO)C[C@H](O)[C@H]2C` (some centres unmarked) [Lasonolide F (IV), Lasonolide F] was tested. Which zone of inhibition at 25 µg/mL ([1]; Candida albicans, ATCC44506, tested at 25 μg/ml (disk 6.35 mm impregnated with 25 μg), read-out: growth inhibitory zone) did it give?
A: Its zone of inhibition at 25 µg/mL is 10 mm.

Q: And the MIC ([5]; RPMI broth, read-out: Minimum inhibitory concentration (MIC))?
A: The MIC was greater than 50 µg/mL.

Q: And the MIC ([5]; SDB broth, read-out: Minimum inhibitory concentration (MIC))?
A: Its MIC is 50 µg/mL (≈ 85.2 µM).

Q: With `C[C@@H]1[C@H](O)[C@@H](C)/C=C/C=C/CC/C=C/C=C/C=C/C=C/C(O[C@H]2O[C@H](C)[C@@H](O)[C@H](N)[C@@H]2O)CC2O[C@](O)(CC(O)C(O)CCC(O)CC(O)CC(O)CC(=O)O[C@H]1C)CC(O)C2C(=O)O` (some centres unmarked) [nystatin, reference compound] as the molecule, how does the zone of inhibition ([1]; control disk containing 100IU, same plate) read?
A: The zone of inhibition was 28 mm.

Q: Which IC50 [2, 6] does the source give for `CC1=C/[C@H]2O[C@@H](C/C=C/C=C/C(=O)O[C@@H]3C[C@@H](/C=C/C\C=C\1)O[C@@H](C/C=C\CCO)[C@]3(C)CO)C[C@H](O)[C@H]2C` [Lasonolide D (II), Lasonolide D] here?
A: The IC50 was 2.4 µg/mL.

Q: And the pIC50 [2, 6]?
A: The pIC50 was 5.35.

Q: What about the IC50 ([3]; Homo sapiens, NCI/ADR-RES) of the same molecule?
A: Its IC50 is greater than 5 µg/mL.

Q: What about the pIC50 ([3]; Homo sapiens, NCI/ADR-RES) of the same molecule?
A: Its pIC50 is less than 5.05.

Q: What about the IC50 [4, 7] of the same molecule?
A: The IC50 was 2.6 µg/mL.

Q: What about the pIC50 [4, 7] of the same molecule?
A: The pIC50 was 5.31.
